# Test results reported in EP4768499A1, “MACROCYCLIC PEPTIDE COMPOUND HAVING CELL MEMBRANE PERMEABILITY AND METABOLIC STABILITY, AND LIBRARY CONTAINING SAME” (Chugai Seiyaku Kabushiki Kaisha, priority 2023, dated 2025).
# Like-named read-outs stand apart in the source and are kept apart here. Starred links: 1 amine or outer side, 2 acyl side, 3 side chain; linkers in the order of their positions; H or OH if unused. Non-standard residues stand in square brackets, D forms with d. Residues, ends and D or L forms follow the SMILES beside them. *: point of attachment. NMedβ3hAla = C[C@H](CC(=O)[*:2])N(C)[*:1]; NMeF = CN[C@@H](Cc1ccccc1)C(=O)O; NMeGABA = CN(CCCC(=O)[*:2])[*:1]; NMeI = CC[C@H](C)[C@H](NC)C(=O)O; NMeT = CN[C@H](C(=O)O)[C@@H](C)O; hPhe = N[C@@H](CCc1ccccc1)C(=O)O; NMeβAla = CN(CCC(=O)[*:2])[*:1]; NMeL = CN[C@@H](CC(C)C)C(=O)O; NMeV = CN[C@H](C(=O)O)C(C)C; d(β3hA) = C[C@@H](N)CC(=O)O; NMeAbu = CC[C@H](NC)C(=O)O; NMeA = CN[C@@H](C)C(=O)O; Abu = CC[C@H](N)C(=O)O; βAla = NCCC(=O)O; Sar = CNCC(=O)O; tBu = CC(C)(C)*
# Columns and labels:
# Caco-2 cells = assay: Membrane permeability test using Caco-2 cells with preincubation; assay type: in vitro ADME
# [1] = as above; assay type: in vitro ADME; details: Caco-2
# [2] = Metabolic stability test: liver microsomal stability assay; assay type: in vitro ADME, mouse; details: for microsomal CLint at 1 µM: male, pH 7.4, presence of NADPH, read-out: Mouse Hepatic Microsome CLh,int NADPH(+)
# [3] = Caco-2 cells, preincubation 20 to 24 hours, apical FaSSIF/HBSS 1% DMSO pH 6.0, basal HBSS 4% BSA pH 7.4, basal sample at 180 minutes
# [4] = preincubation 20 to 24 hours, Apical FaSSIF/HBSS pH 6.0, Basal HBSS 4% BSA pH 7.4, 180 minutes, read-out: Caco2 Papp
# [5] = mouse liver microsomes 0.5 mg protein/mL, compound 1 µM
# [6] = mouse liver microsomes 0.5 mg protein/mL, compound 1 µM, absence of NADPH
SMILES,Caco2 Papp (10^-6 cm/sec) (Caco-2 cells; [3]),"Papp A→B [1, 4] [×10⁻⁶ cm/s]","microsomal CLint at 1 µM [2, 5] [µL/min/mg]","Mouse Hepatic Microsome CLh,int NADPH(-) [2, 6] [µL/min/mg Protein]",Caco2 Papp (10^-6 cm/sec) (Caco-2 cells; Caco-2),Papp A→B [1] [×10⁻⁶ cm/s],"Mouse Hepatic Microsome CLh,int NADPH(-) [2] [µL/min/mg Protein]"
CC[C@H](C)[C@@H]1NC(=O)[C@H](C)N(C)C(=O)CCCN(C)C(=O)C[C@@H](C)NC(=O)[C@H](C(C)C)N(C)C(=O)[C@H](CC(C)C)N(C)C(=O)[C@H](C)N(C)C(=O)[C@H]([C@@H](C)O)N(C)C(=O)[C@H](CCc2ccccc2)NC(=O)[C@H](C(C)C)NC(=O)[C@H](Cc2ccccc2)N(C)C(=O)[C@H](CC)N(C)C(=O)[C@H](C)N(C)C(=O)[C@H](C(C)C)N(C)C1=O [pd059] (cyclo(I[NMeV][NMeA][NMeAbu][NMeF]V[hPhe][NMeT][NMeA][NMeL][NMeV][d(β3hA)][NMeGABA][NMeA])),0.52 10^-6 cm/sec,0.52,12.7,18.6,–,–,–
CC[C@H](C)[C@@H]1NC(=O)[C@H](CC(C)C)N(C)C(=O)C[C@@H](C)NC(=O)[C@H](C(C)C)N(C)C(=O)[C@H](COC(C)(C)C)NC(=O)[C@H](CC)N(C)C(=O)[C@H](Cc2ccccc2)N(C)C(=O)[C@H](CC(C)C)NC(=O)[C@@H]2CCCN2C(=O)[C@H]([C@@H](C)O)N(C)C(=O)[C@H](CC(C)C)N(C)C(=O)[C@H](CC)N(C)C(=O)[C@H](C(C)C)N(C)C(=O)[C@H](CC(C)C)N(C)C1=O [pd061] (cyclo(I[NMeL][NMeV][NMeAbu][NMeL][NMeT]PL[NMeF][NMeAbu]S(tBu)[NMeV][d(β3hA)][NMeL])),0.51 10^-6 cm/sec,0.51,39,39.7,–,–,–
CC[C@@H]1NC(=O)[C@H](CC(C)C)N(C)C(=O)CCNC(=O)[C@H](Cc2ccccc2)N(C)C(=O)[C@H](Cc2ccccc2)N(C)C(=O)CNC(=O)[C@H]([C@@H](C)CC)NC(=O)[C@H](CC(C)C)N(C)C(=O)CCCN(C)C(=O)C[C@@H](C)N(C)C(=O)[C@H](CC(C)C)NC(=O)[C@H]([C@@H](C)CC)NC(=O)[C@H](C)N(C)C(=O)[C@H](C(C)C)NC1=O [pd062] (cyclo([Abu]V[NMeA]IL[NMedβ3hAla][NMeGABA][NMeL]IG[NMeF][NMeF][βAla][NMeL])),–,–,–,–,<0.11 10^-6 cm/sec,< 0.11,24.1
CC[C@@H]1NC(=O)[C@H](CC(C)C)N(C)C(=O)[C@H](COC(C)(C)C)NC(=O)[C@H]([C@@H](C)CC)NC(=O)[C@H](Cc2ccccc2)N(C)C(=O)CNC(=O)[C@H]([C@@H](C)CC)NC(=O)[C@H](CC(C)C)N(C)C(=O)CCCN(C)C(=O)C[C@@H](C)N(C)C(=O)[C@H](CC(C)C)NC(=O)[C@H](C)N(C)C(=O)[C@H](Cc2ccccc2)N(C)C(=O)[C@H](C(C)C)NC1=O [pd063] (cyclo([Abu]V[NMeF][NMeA]L[NMedβ3hAla][NMeGABA][NMeL]IG[NMeF]IS(tBu)[NMeL])),0.03 10^-6 cm/sec,0.03,47.5,33.7,–,–,–
CC[C@@H]1NC(=O)[C@H](C(C)C)NC(=O)[C@H]([C@@H](C)CC)N(C)C(=O)[C@H](CCc2ccccc2)NC(=O)[C@H](Cc2ccccc2)N(C)C(=O)[C@H]([C@@H](C)CC)NC(=O)[C@H](CC(C)C)N(C)C(=O)[C@H](CC(C)C)NC(=O)CCN(C)C(=O)C[C@@H](C)N(C)C(=O)[C@H](CC(C)C)N(C)C(=O)CNC(=O)[C@@H]2CCCN2C(=O)[C@H](CC(C)C)N(C)C1=O [pd064] (cyclo([Abu][NMeL]PG[NMeL][NMedβ3hAla][NMeβAla]L[NMeL]I[NMeF][hPhe][NMeI]V)),0.04 10^-6 cm/sec,0.04,41.4,43.3,–,–,–
CC[C@@H]1NC(=O)[C@H](CC(C)C)N(C)C(=O)[C@H](COC(C)(C)C)NC(=O)[C@H]([C@@H](C)CC)N(C)C(=O)[C@H](CCc2ccccc2)NC(=O)[C@H](Cc2ccccc2)N(C)C(=O)[C@H]([C@@H](C)CC)NC(=O)[C@H](CC(C)C)N(C)C(=O)[C@H](CC(C)C)N(C)C(=O)CCN(C)C(=O)C[C@@H](C)N(C)C(=O)CN(C)C(=O)[C@H](CC(C)C)N(C)C(=O)[C@@H]2CCCN2C1=O [pd066] (cyclo([Abu]P[NMeL][Sar][NMedβ3hAla][NMeβAla][NMeL][NMeL]I[NMeF][hPhe][NMeI]S(tBu)[NMeL])),0.33 10^-6 cm/sec,0.33,38.9,36.4,–,–,–
CC[C@@H]1NC(=O)[C@@H]2CCCN2C(=O)[C@H](CC(C)C)N(C)C(=O)[C@H](C(C)C)NC(=O)[C@H](CC(C)C)N(C)C(=O)[C@H]([C@@H](C)O)NC(=O)[C@H](Cc2ccccc2)N(C)C(=O)CN(C)C(=O)C[C@@H](C)N(C)C(=O)[C@H](C(C)C)NC(=O)[C@H](COC(C)(C)C)NC(=O)[C@H](C)N(C)C(=O)[C@H](CC(C)C)NC(=O)[C@H](Cc2ccccc2)N(C)C1=O [pd067] (cyclo([Abu][NMeF]L[NMeA]S(tBu)V[NMedβ3hAla][Sar][NMeF]T[NMeL]V[NMeL]P)),<0.12 10^-6 cm/sec,< 0.12,17,10.8,–,–,–
